In patent US20100204149A1, “USE OF OCTREOTIDE AS A THERAPEUTIC AGENT” (priority 2007, published 2010):

System: drug-resistant Mycobacterium tuberculosis
Conditions: 5 micrograms per ml

Compound: C[C@@H](O)[C@@H]1NC(=O)[C@H](CCCCN)NC(=O)[C@@H](Cc2c[nH]c3ccccc23)NC(=O)[C@H](Cc2ccccc2)NC(=O)[C@@H](NC(=O)[C@H](N)Cc2ccccc2)CSSC[C@@H](C(=O)N[C@H](CO)[C@@H](C)O)NC1=O [Octreotide, H-D-Phe-Cys-Phe-D-Trp-Lys-Thr-Cys-L-threoninol]
- % inhibition: 100.0%
